One assay has as its target T1, ERα full-length (Homo sapiens, UniProt P03372).
T1 construct: 34 nM ERα full-length and 1.4 nM Fluormone EL Red were incubated; purchased ThermoFisher A15884
T1 sequence (P03372 1-595): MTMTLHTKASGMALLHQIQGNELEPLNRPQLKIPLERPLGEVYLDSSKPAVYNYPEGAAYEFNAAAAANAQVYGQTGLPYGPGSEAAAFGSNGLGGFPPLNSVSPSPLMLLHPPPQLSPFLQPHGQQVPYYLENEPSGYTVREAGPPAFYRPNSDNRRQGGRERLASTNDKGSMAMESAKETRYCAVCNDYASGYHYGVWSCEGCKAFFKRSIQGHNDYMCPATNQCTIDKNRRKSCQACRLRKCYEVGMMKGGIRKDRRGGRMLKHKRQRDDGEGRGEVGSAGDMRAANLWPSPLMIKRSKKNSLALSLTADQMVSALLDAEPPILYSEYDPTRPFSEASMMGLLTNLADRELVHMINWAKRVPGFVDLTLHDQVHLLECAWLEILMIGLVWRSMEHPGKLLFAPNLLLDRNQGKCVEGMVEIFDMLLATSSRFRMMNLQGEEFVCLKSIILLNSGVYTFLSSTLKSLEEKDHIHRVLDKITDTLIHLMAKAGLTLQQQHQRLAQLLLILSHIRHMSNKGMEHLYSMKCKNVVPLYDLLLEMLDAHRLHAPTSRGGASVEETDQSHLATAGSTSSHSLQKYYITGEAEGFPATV
Description: PolarScreen ERα Competitor Assay (fluorescence polarization). It counts as binding. How it is done:
The PolarScreen Estrogen Receptor-Alpha Competitor Assay, Red (ThermoFisher, A15884) was used to determine if the X compounds bind to ERα. The assay was performed according to the manufacturer’s protocol.
(Fluorescence polarisation rises when a labelled molecule tumbles more slowly, as on binding a larger partner.)

In another assay the test system is MCF-7 luc. Nature of the assay: Clonogenic assay (clonal expansion), MCF-7 cells expressing wild-type ER. The assay is classed as cell-based. The conditions noted are these: Homo sapiens, MCF7, 336 h. As for the experimental part:
(§1) Cells were seeded at a density of 1–2×10^3 cells/well in a 6-well plate and treated with increasing concentrations of the X compounds for 14–21 days. Medium and compounds were renewed every 7 days. The experiments were terminated by fixing the cells with methanol and the colonies formed were visualized after staining with 0.5% crystal violet (w/v) in 20% methanol (v/v). Plates were photographed and the area covered by the colonies was calculated using the ColonyArea Plugin for Fiji (RRID:SCR_003070).[20]

Another assay has as its system MCF-7 cells. Nature of the assay: Clonogenic assay in MCF-7 cells with AHR antagonist CH223191. It counts as cell-based, human. As to conditions: MCF-7, 10 nM compound, 1 μM CH223191, 14 days. As for the experimental part: as §1
The test system of another assay is ERα in MCF-7 cells. Nature of the assay: Immunoblot of ERα in MCF-7 cells. The assay is classed as cell-based, human. The conditions noted are these: MCF-7, 48 h, increasing concentrations up to 1 μM. As for the experimental part:
To determine the relative expression of proteins by Western blotting, cells were first washed with ice-cold phosphate buffered saline (PBS). Subsequently, they were lysed in ice-cold NP40 lysis buffer (1%NP-40, 50 mM Tris-HCl, pH 8.0, 150 mM NaCl, 5 mM Ethylenediaminetetraacetic acid [EDTA], 1 mM PMSF) on ice. DNA was degraded by sonification (five pulses at 50 amplitudes). Protein concentration was determined, and equal amounts of protein were separated on a 9% SDS-PAGE gel. The proteins were transferred onto nitrocellulose membrane by a standard Western blotting protocol and the membranes were incubated with the following antibodies: ERα (Santa Cruz Biotechnology, sc-8002, RRID: AB_627558) and PCNA (Santa Cruz Biotechnology, sc-56, RRID: AB_628110), followed by incubation with HRP labeled Goat anti-mouse Immunoglobulins (DAKO, P0447, RRID: AB_2617137).
(In western blotting, separated proteins are transferred to a membrane and probed.)

The target in the next assay is T2, AHR-Hsp90-XAP2 (Homo sapiens, UniProt P35869).
T2 construct: made in house
Nature of the assay: Thermal stability measurements (nano-DSF). The assay is classed as binding. As to conditions: 2.5 μM protein, 12.5 μM compound. How it is done:
Thermal denaturation experiments of AHR complexes in the presence of compounds were performed using a Tycho NT.6 instrument (NanoTemper Technologies). Protein samples were prepared as previously described[67] and subsequently diluted in the buffer containing 20 mM Bis-Tris–HCl pH 7.0, 50 mM NaCl, 10 mM KCl, 10 mM MgCl2, 20 mM Na2MoO4 and 2 mM β-mercaptoethanol to a final protein concentration of 2.5 μM. Compound stock solutions were prepared at 20 mM in DMSO and added to the protein samples to yield a final concentration of 12.5 μM. For control measurements, DMSO was added to a final concentration of 5% (v/v). Following ligand or DMSO addition, the samples were gently mixed and incubated at room temperature for 10 min to allow equilibration. Thermal denaturation profiles were acquired over a temperature range of 35°C–95°C, with a heating rate of 1 °C per min. Fluorescence was monitored at emission wavelengths of 330 nm and 350 nm, and the data were analyzed as the first derivative of the fluorescence ratio (F330/F350) as a function of temperature. All experiments were performed in triplicate, and data were analyzed using the Tycho NT.6 software (NanoTemper Technologies) according to the manufacturer’s recommendations.
On the technique in general: Differential scanning fluorimetry follows unfolding on heating by fluorescence.

In the next assay the test system is MCF-7 luc D538G. Description: Clonogenic assay (clonal expansion), MCF-7 cells with D538G ER mutation. The conditions noted are these: Homo sapiens, MCF7, 336 h. The assay is classed as cell-based. As for the experimental part: as §1
The mark [1] stands for this setting: Figure 1B, MCF-7 luc, absence of E2, 14 days.
[2] abbreviates: Figure 1C, MCF-7 luc + 10 nM E2, 14 days.
Setting [3] is: read-out: IC50 clonal expansion, Figure 1B, MCF-7 luc D538G, absence of E2, 14 days.
Where [4] appears, read: read-out: IC50 clonal expansion, Figure 1C, MCF-7 luc D538G + 10 nM E2, 14 days.

We go through three compounds from article PMC13197777, “Distinct 2-phenylimidazo[1,2-a]pyridine derivatives that inhibit breast cancer cell proliferation identified as AHR ligands” (iScience, 2026).

The structures appear in SMILES notation. Where two headings read alike, the source gives them in different places.

T2 sequence (P35869 11-437 limits assumed): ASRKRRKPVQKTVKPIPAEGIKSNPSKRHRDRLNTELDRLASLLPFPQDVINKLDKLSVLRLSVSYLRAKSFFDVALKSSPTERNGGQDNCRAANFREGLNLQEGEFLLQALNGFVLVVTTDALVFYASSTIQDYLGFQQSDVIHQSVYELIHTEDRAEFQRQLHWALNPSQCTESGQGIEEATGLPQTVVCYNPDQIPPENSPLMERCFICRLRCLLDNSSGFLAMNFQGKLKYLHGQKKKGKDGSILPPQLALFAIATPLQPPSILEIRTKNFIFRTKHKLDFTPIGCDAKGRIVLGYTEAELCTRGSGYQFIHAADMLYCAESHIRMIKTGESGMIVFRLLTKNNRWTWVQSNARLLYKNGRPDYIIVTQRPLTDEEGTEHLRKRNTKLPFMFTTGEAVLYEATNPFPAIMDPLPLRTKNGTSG
T2 sequence (P08238 whole entry partner): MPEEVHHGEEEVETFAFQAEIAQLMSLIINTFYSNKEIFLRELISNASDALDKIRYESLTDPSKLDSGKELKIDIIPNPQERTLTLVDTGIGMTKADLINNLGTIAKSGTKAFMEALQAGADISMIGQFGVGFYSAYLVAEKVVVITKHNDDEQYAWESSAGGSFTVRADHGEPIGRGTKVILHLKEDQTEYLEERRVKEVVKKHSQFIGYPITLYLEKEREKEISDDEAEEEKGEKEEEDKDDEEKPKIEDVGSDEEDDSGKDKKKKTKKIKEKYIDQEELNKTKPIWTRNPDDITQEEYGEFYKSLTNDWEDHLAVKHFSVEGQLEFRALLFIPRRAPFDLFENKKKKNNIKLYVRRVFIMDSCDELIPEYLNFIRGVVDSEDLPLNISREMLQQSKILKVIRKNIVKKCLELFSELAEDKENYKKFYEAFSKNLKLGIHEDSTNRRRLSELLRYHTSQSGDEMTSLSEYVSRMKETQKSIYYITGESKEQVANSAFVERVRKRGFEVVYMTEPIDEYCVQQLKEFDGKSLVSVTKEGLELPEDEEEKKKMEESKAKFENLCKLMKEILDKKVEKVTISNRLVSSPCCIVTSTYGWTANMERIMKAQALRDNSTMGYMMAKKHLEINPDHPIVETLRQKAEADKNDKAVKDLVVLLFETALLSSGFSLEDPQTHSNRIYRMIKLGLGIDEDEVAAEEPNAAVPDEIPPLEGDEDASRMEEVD
T2 sequence (O00170 whole entry partner): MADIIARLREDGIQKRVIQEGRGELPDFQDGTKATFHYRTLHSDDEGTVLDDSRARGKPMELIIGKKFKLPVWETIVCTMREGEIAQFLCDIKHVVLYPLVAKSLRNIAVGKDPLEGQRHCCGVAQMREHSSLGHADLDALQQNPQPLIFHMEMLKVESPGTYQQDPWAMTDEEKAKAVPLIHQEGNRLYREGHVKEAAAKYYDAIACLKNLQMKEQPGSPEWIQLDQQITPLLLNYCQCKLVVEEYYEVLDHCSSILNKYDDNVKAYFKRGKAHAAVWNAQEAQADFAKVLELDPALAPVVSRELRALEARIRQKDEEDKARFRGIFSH

In the case of `Fc1ccc(-c2cn3cc(C(F)(F)F)cc(Cl)c3n2)cc1` [X15695], the “displacement of the Fluormone tracer from ERα” value (shortened to “displacement”) at ERα full-length is reported as “did not”. The IC50 (in general, the concentration that inhibits the measured activity by half) in the assay with MCF-7 luc (setting [1]) was determined as 2.45 nM; in the assay with MCF-7 luc (setting [2]) it was 7.96 nM; with MCF-7 luc (Figure 1D, MCF-7 luc, absence of E2, 14 days), 2.45 nM; in the assay on MCF-7 luc (Figure 1E, MCF-7 luc + 10 nM E2, 14 days), 7.96 nM; in the assay with MCF-7 luc D538G (setting [3]) it was 11.4 nM; with MCF-7 luc D538G (setting [4]), 5.34 nM. In addition, the IC50 in the assay with MCF-7 luc D538G (read-out: IC50 clonal expansion, Figure 1D, MCF-7 luc D538G, absence of E2, 14 days) was 11.4 nM; in the assay with MCF-7 luc D538G (read-out: IC50 clonal expansion, Figure 1E, MCF-7 luc D538G + 10 nM E2, 14 days) it was 5.34 nM. In addition, the “inhibition of colony expansion in the presence of AHR antagonist CH223191” value (“inhibition of colony expansion” below) with MCF-7 cells was “clearly abrogated by the AHR antagonist CH223191”. In addition, the “ERα destabilization (immunoblot)” value in the assay with ERα in MCF-7 cells is given as “most proficient in destabilizing ERα”. Further, the “thermal stabilization of AHR (nano-DSF)” value at AHR-Hsp90-XAP2 was “bona fide AHR ligands”.
On to `Cc1cc(Cl)c2nc(-c3ccccc3)cn2c1` [X19728], for which the “displacement” value at ERα full-length was “did not”. The IC50 was 10.3 nM in the assay with MCF-7 luc (setting [2]), 74.4 nM in the assay on MCF-7 luc D538G (setting [3]) and 48 nM in the assay on MCF-7 luc D538G (setting [4]). The “inhibition of colony expansion” value in the assay with MCF-7 cells is on record as “no effect on colony formation”. Moreover, the “ERα destabilization (immunoblot)” value with ERα in MCF-7 cells is given as “no significant ERα destabilization”. For the same compound, the “thermal stabilization of AHR (nano-DSF)” value on AHR-Hsp90-XAP2 was “bona fide AHR ligands”.
For the compound `Cc1cc(Cl)c2nc(-c3ccc(F)cc3)cn2c1` [X19724], on ERα full-length, the “displacement” value is “did not”. The concentration for half-maximal inhibition (IC50) worked out at 7.41 nM in the assay with MCF-7 luc (setting [1]), 15.2 nM in the assay on MCF-7 luc (setting [2]), 324 nM with MCF-7 luc D538G (setting [3]) and 31.6 nM in the assay with MCF-7 luc D538G (setting [4]). Besides, the “inhibition of colony expansion” value with MCF-7 cells is recorded as “to a lesser extent”. For the same compound, the “ERα destabilization (immunoblot)” value in the assay with ERα in MCF-7 cells was “most proficient in destabilizing ERα”. Further, on AHR-Hsp90-XAP2, the “thermal stabilization of AHR (nano-DSF)” value is given as “bona fide AHR ligands”.
